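Grown in 96-well plates, cells were treated for 48 hours with each compound at five concentrations. Insufficient inhibition: endpoint recorded as highest concentration tested. TGI: concentration producing complete growth inhibition.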
Experiments:
Test in all cases: NCI-60 cell line screen, 48 h
[1] = system: SNB-19 CNS
[2] = system: SK-MEL-5 melanoma
[3] = system: COLO 205 colon
[4] = system: NCI/ADR-RES ovarian
[5] = system: BT-549 breast
[6] = system: UACC-257 melanoma
[7] = system: MCF7 breast
[8] = system: SN12C renal
[9] = system: UACC-62 melanoma
[10] = system: MALME-3M melanoma
[11] = system: K-562 leukemia
[12] = system: SF-268 CNS
[13] = system: LOX IMVI melanoma
[14] = system: HT29 colon
[15] = system: SK-OV-3 ovarian
[16] = system: SK-MEL-28 melanoma
[17] = system: MDA-MB-231 breast
[18] = system: IGROV1 ovarian
[19] = system: MDA-N
[20] = system: SR leukemia
[21] = system: ACHN renal
[22] = system: OVCAR-8 ovarian
[23] = system: 786-0 renal
[24] = system: HS 578T breast
[25] = system: NCI-H23 lung
[26] = system: TK-10 renal
[27] = system: SW-620 colon
[28] = system: OVCAR-4 ovarian
[29] = system: KM12 colon
[30] = system: DU-145 prostate
[31] = system: HOP-92 NSCLC
[32] = system: SF-539 CNS
[33] = system: OVCAR-3 ovarian
[34] = system: A498 renal
[35] = system: NCI-H460 lung
[36] = system: M14 melanoma
[37] = system: MOLT-4 leukemia
[38] = system: HOP-62 NSCLC
[39] = system: RXF 393 renal
[40] = system: T-47D breast
[41] = system: MDA-MB-435
[42] = system: SF-295 CNS
[43] = system: RPMI-8226 leukemia
[44] = system: HCT-15 colon
[45] = system: SK-MEL-2 melanoma
[46] = system: CAKI-1 renal
[47] = system: UO-31 renal
[48] = system: HCT-116 colon
[49] = system: NCI-H522 lung
[50] = system: A549 NSCLC
[51] = system: HL-60(TB) leukemia
[52] = system: OVCAR-5 ovarian
[53] = system: U251 CNS
[54] = system: EKVX NSCLC
[55] = system: CCRF-CEM leukemia
[56] = system: PC-3 prostate
[57] = system: NCI-H226 lung
[58] = system: HCC-2998 colon
[59] = system: SNB-75 CNS

## CCCCCc1nnc(NS(=O)(=O)c2ccc(NC(=O)OCC(C)C)cc2)s1
[1]
  TGI: > 100 µM
[2]
  TGI: 63.7 µM
[3]
  TGI: 41.6 µM
[4]
  TGI: > 100 µM
[5]
  TGI: > 100 µM
[6]
  TGI: > 100 µM
[7]
  TGI: > 100 µM
[8]
  TGI: > 100 µM
[9]
  TGI: > 100 µM
[10]
  TGI: 94.6 µM
[11]
  TGI: 60.9 µM
[12]
  TGI: > 100 µM
[13]
  TGI: > 100 µM
[14]
  TGI: 46.1 µM
[15]
  TGI: > 100 µM
[16]
  TGI: 95.5 µM
[17]
  TGI: > 100 µM
[18]
  TGI: 97.7 µM
[19]
  TGI: > 100 µM
[20]
  TGI: 36.9 µM
[21]
  TGI: > 100 µM
[22]
  TGI: > 100 µM
[23]
  TGI: > 100 µM
[24]
  TGI: > 100 µM
[25]
  TGI: > 100 µM
[26]
  TGI: > 100 µM
[27]
  TGI: > 100 µM
[28]
  TGI: 56.5 µM
[29]
  TGI: > 100 µM
[30]
  TGI: > 100 µM
[31]
  TGI: 77.3 µM
[32]
  TGI: 64.2 µM
[33]
  TGI: 86.9 µM
[34]
  TGI: 24.6 µM
[35]
  TGI: > 100 µM
[36]
  TGI: > 100 µM
[37]
  TGI: 54 µM
[38]
  TGI: > 100 µM
[39]
  TGI: > 100 µM
[40]
  TGI: > 100 µM
[41]
  TGI: > 100 µM
[42]
  TGI: > 100 µM
[43]
  TGI: 41.4 µM
[44]
  TGI: > 100 µM
[45]
  TGI: 53.5 µM
[46]
  TGI: > 100 µM
[47]
  TGI: > 100 µM
[48]
  TGI: 53.7 µM
[49]
  TGI: 79 µM
[50]
  TGI: > 100 µM
[51]
  TGI: > 100 µM
[52]
  TGI: > 100 µM
[53]
  TGI: > 100 µM
[54]
  TGI: 78.2 µM
[55]
  TGI: 77.1 µM
[56]
  TGI: > 100 µM

## CCCCCc1cc2cc3c(c(O)c2c(=O)[nH]1)C1(CCC3)C(O)=c2c(=O)c3c(=O)cc(OC)c(=O)c=3c(=O)c2=C1O (centres undefined)
[1]
  TGI: 3.86 µM
[2]
  TGI: 1.69 µM
[57]
  TGI: 4.21 µM
[3]
  TGI: 0.564 µM
[4]
  TGI: 15.3 µM
[5]
  TGI: 3.33 µM
[6]
  TGI: 4.64 µM
[7]
  TGI: 2.06 µM
[8]
  TGI: 3.91 µM
[9]
  TGI: 3.29 µM
[10]
  TGI: 2.95 µM
[11]
  TGI: > 18.7 µM
[12]
  TGI: 3.63 µM
[58]
  TGI: 4.42 µM
[13]
  TGI: 2.85 µM
[14]
  TGI: 3.11 µM
[59]
  TGI: 3.67 µM
[15]
  TGI: 5.38 µM
[16]
  TGI: 3.68 µM
[17]
  TGI: 4.28 µM
[18]
  TGI: 3.48 µM
[19]
  TGI: 3.84 µM
[20]
  TGI: 4.27 µM
[21]
  TGI: 2.25 µM
[22]
  TGI: 3.25 µM
[23]
  TGI: 2.69 µM
[24]
  TGI: 5.42 µM
[25]
  TGI: 3.37 µM
[27]
  TGI: 3.04 µM
[28]
  TGI: 4.44 µM
[29]
  TGI: 4.22 µM
[30]
  TGI: 3.34 µM
[31]
  TGI: 1.3 µM
[33]
  TGI: 2.21 µM
[34]
  TGI: 4.58 µM
[35]
  TGI: 3.12 µM
[36]
  TGI: 3.33 µM
[37]
  TGI: 4.01 µM
[38]
  TGI: 7.67 µM
[39]
  TGI: 1.82 µM
[40]
  TGI: 2.76 µM
[41]
  TGI: 3.13 µM
[42]
  TGI: 11 µM
[43]
  TGI: > 18.7 µM
[44]
  TGI: 2.33 µM
[45]
  TGI: 3.68 µM
[46]
  TGI: 2.8 µM
[47]
  TGI: 1.94 µM
[48]
  TGI: 2.41 µM
[49]
  TGI: 1.87 µM
[50]
  TGI: 3.53 µM
[51]
  TGI: 1.24 µM
[52]
  TGI: 4.47 µM
[53]
  TGI: 2.61 µM
[54]
  TGI: 2.83 µM
[55]
  TGI: > 18.7 µM
[56]
  TGI: 3.66 µM

## Cc1cn(C2CC(N)C(C(=O)NCC(=O)O)O2)c(=O)[nH]c1=O (centres undefined)
[1]
  TGI: > 100 µM
[2]
  TGI: > 100 µM
[57]
  TGI: > 100 µM
[3]
  TGI: > 100 µM
[4]
  TGI: > 100 µM
[5]
  TGI: > 100 µM
[7]
  TGI: > 100 µM
[8]
  TGI: > 100 µM
[9]
  TGI: > 100 µM
[10]
  TGI: > 100 µM
[11]
  TGI: > 100 µM
[12]
  TGI: > 100 µM
[58]
  TGI: > 100 µM
[13]
  TGI: > 100 µM
[14]
  TGI: > 100 µM
[59]
  TGI: > 100 µM
[15]
  TGI: > 100 µM
[16]
  TGI: > 100 µM
[17]
  TGI: > 100 µM
[18]
  TGI: > 100 µM
[19]
  TGI: > 100 µM
[20]
  TGI: > 100 µM
[21]
  TGI: > 100 µM
[24]
  TGI: > 100 µM
[25]
  TGI: > 100 µM
[26]
  TGI: > 100 µM
[27]
  TGI: > 100 µM
[28]
  TGI: > 100 µM
[29]
  TGI: > 100 µM
[30]
  TGI: > 100 µM
[31]
  TGI: > 100 µM
[33]
  TGI: > 100 µM
[34]
  TGI: > 100 µM
[35]
  TGI: > 100 µM
[36]
  TGI: > 100 µM
[37]
  TGI: > 100 µM
[38]
  TGI: > 100 µM
[39]
  TGI: > 100 µM
[40]
  TGI: > 100 µM
[41]
  TGI: > 100 µM
[43]
  TGI: > 100 µM
[44]
  TGI: > 100 µM
[46]
  TGI: > 100 µM
[47]
  TGI: > 100 µM
[48]
  TGI: > 100 µM
[49]
  TGI: > 100 µM
[51]
  TGI: > 100 µM
[52]
  TGI: > 100 µM
[53]
  TGI: > 100 µM
[54]
  TGI: > 100 µM
[55]
  TGI: > 100 µM
[56]
  TGI: > 100 µM

## CCOC(=O)c1c(-c2ccc(Cl)cc2)c(C#N)c(=S)n(C2OC(COC(C)=O)C(OC(C)=O)C(OC(C)=O)C2OC(C)=O)c1-c1ccccc1 (centres undefined)
[1]
  TGI: > 100 µM
[2]
  TGI: > 100 µM
[3]
  TGI: > 100 µM
[4]
  TGI: > 100 µM
[5]
  TGI: > 100 µM
[6]
  TGI: > 100 µM
[7]
  TGI: > 100 µM
[8]
  TGI: > 100 µM
[9]
  TGI: > 100 µM
[10]
  TGI: > 100 µM
[11]
  TGI: > 100 µM
[12]
  TGI: > 100 µM
[58]
  TGI: > 100 µM
[13]
  TGI: > 100 µM
[14]
  TGI: > 100 µM
[59]
  TGI: > 100 µM
[15]
  TGI: > 100 µM
[16]
  TGI: > 100 µM
[17]
  TGI: > 100 µM
[18]
  TGI: > 100 µM
[19]
  TGI: > 100 µM
[20]
  TGI: > 100 µM
[21]
  TGI: > 100 µM
[23]
  TGI: > 100 µM
[24]
  TGI: > 100 µM
[25]
  TGI: > 100 µM
[26]
  TGI: > 100 µM
[27]
  TGI: > 100 µM
[28]
  TGI: > 100 µM
[29]
  TGI: > 100 µM
[30]
  TGI: > 100 µM
[31]
  TGI: 81.7 µM
[32]
  TGI: > 100 µM
[33]
  TGI: > 100 µM
[35]
  TGI: > 100 µM
[36]
  TGI: > 100 µM
[37]
  TGI: > 100 µM
[38]
  TGI: > 100 µM
[39]
  TGI: > 100 µM
[40]
  TGI: > 100 µM
[41]
  TGI: > 100 µM
[42]
  TGI: > 100 µM
[43]
  TGI: > 100 µM
[44]
  TGI: > 100 µM
[45]
  TGI: > 100 µM
[46]
  TGI: > 100 µM
[47]
  TGI: > 100 µM
[48]
  TGI: > 100 µM
[50]
  TGI: > 100 µM
[51]
  TGI: > 100 µM
[52]
  TGI: > 100 µM
[53]
  TGI: > 100 µM
[55]
  TGI: > 100 µM
[56]
  TGI: > 100 µM
